According to patent publication US12168654B2, “Pyrimidine derivative containing one deuterium atom and preparation process and use thereof” (Guangdong Lewwin Pharmaceutical Research Institute Co., Ltd., priority 2018, dated 2024):
Where two headings read alike, the source gives them in different places.

What was measured:
[1] = system: human highly metastatic hepatoma cells MHCC-97H; experiment: MTT anti-tumor cell proliferation test; type: cell-based; details: for IC50: Homo sapiens, MHCC97H, MTT
Protocol: The novel pyrimidine derivatives of the invention were tested on their anti-tumor activities. Human highly metastatic hepatoma cells MHCC-97H were employed in the MTT process to evaluate the anti-tumor cell proliferation activities. The specific operation steps were as below: tumor cells were inoculated in a 96-well plate by a certain number of cells, at a cell density of 5×10^3-10×10^3/well. They were incubated in an incubator at 37° C. and a carbon dioxide concentration of 5% overnight, into which was then added the compound samples to be tested. After incubation for 72 hours, MTT was added to keep on for 4 hours, and dissolved with the addition of DMSO with shaking, and then detected with a microplate reader (570 nm).
(1) The anti-tumor cell activities of (R)-1D228 are tested. With Tepotinib and (R)-4D288 as the control, human highly metastatic hepatoma cell MHCC-97Hwas selected to evaluate the antitumor cell proliferative activities through the MTT process. The specific operation steps were as below: the tumor cells were inoculated in a 96-well culture plate following a certain number of cells, the cell density was 5×103-10×10^3/well. After cultivation in an incubator at 37° C. and at a CO2 concentration of 5% overnight, the compound samples to test were added. After cultivation for 72 hours, MTT was added to continue the cultivation for 4 hours. DMSO was then added to dissolve with stirring, and detected with a microplate reader (570 nm).

[2] = system: tumor in naked mice; experiment: Anti-tumor test in naked mice; type: in vivo; details: once a day for 2 weeks
[3] = Pharmacokinetic properties in mice (IV and PO); details: in vivo; for AUC(0-inf) / clearance / half-life / bioavailability: Sprague-Dawley (SD); for Vd / Cmax / Tmax: Sprague-Dawley
[4] = in vitro; details: for half-life: microsomes
Protocol: Firstly, a SD rat (200-300 g) was fasted for 12 hours, and then infused rapidly with normal saline. Liver was taken out from the rat, from which liver microsomes were extracted at 0-4° C., ready for use after calibrating the concentration of liver microsomes. At 37° C., liver microsomes were incubated in combination with a certain concentration of compounds and auxiliary reagents for a period of time. The reaction was then quenched with acetonitrile.

[5] = Body weights of animals during administration; type: in vivo, naked mice; details: 8 mg/kg, in g (unit assumed)
Excerpt: The body weights of animals in each group during administration are shown in FIG. 9 and Table 7, showing that there were no significant changes in the body weights of mice and there were not abnormal behaviors of mice during administration.

[6] = incubation 72 hours, Table 1, read-out: Human highly metastatic hepatoma cell MHCC-97H (μM), median inhibitory concentration IC50
[7] = cultivation 72 hours, Table 4, read-out: Human highly metastatic hepatoma cell MHCC-97H (μM), inhibitory activity

C[C@H](c1cccc(-c2ncc(SCCCN(C)C)cn2)c1)n1nc(-c2cccc(C#N)c2)ccc1=O [Compound 8]
IC50 [1, 6]: 0.0139 µM

CC(c1cccc(-c2ncc([Se]CCCN(C)C)cn2)c1)n1nc(-c2cccc(C#N)c2)ccc1=O (centres unmarked) [Compound 10]
IC50 [1, 6]: 0.027 µM

CC(c1cccc(-c2ncc(OCCCN(C)C)cn2)c1)n1nc(-c2cccc(C#N)c2)ccc1=O (centres unmarked) [Compound 1]
IC50 [1, 6]: 0.0476 µM

C[C@@H](c1cccc(-c2ncc(OCC3CCN(C)CC3)cn2)c1)n1nc(-c2cccc(C#N)c2)ccc1=O [(S)-5b]
IC50 [1, 6]: 0.118 µM

CC(c1cccc(-c2ncc(OCC3CCN(C)CC3)cn2)c1)n1nc(-c2cccc(C#N)c2)ccc1=O (racemic) [(±)-5b]
IC50 [1, 6]: 0.0353 µM

CN1CCC(COc2cnc(-c3cccc(Cn4nc(-c5cccc(C#N)c5)ccc4=O)c3)nc2)CC1 [Compound 3]
IC50 [1, 7]: 0.0134 µM

[2H][C@@](C)(c1cccc(-c2ncc(OCC3CCN(C)CC3)cn2)c1)n1nc(-c2cccc(C#N)c2)ccc1=O [(R)-1D228]
Relative tumor proliferation rate T/C (%) ([2]; 4 mg/kg intragastric): 1.78% | Tumor inhibition rate (%) ([2]; 4 mg/kg intragastric): 98.3% | Tumor weights ([2]; 4 mg/kg intragastric): 0.011 ± 0.006 | Relative tumor proliferation rate T/C (%) ([2]; 8 mg/kg intragastric): 1.17% | Tumor inhibition rate (%) ([2]; 8 mg/kg intragastric): 98.6% | Tumor weights ([2]; 8 mg/kg intragastric): 0.009 ± 0.007

CN1CCC(COc2cnc(-c3cccc(Cn4nc(-c5cccc(C#N)c5)ccc4=O)c3)nc2)CC1 [Compound 16]
IC50 [1, 6]: 0.0134 µM

C[C@H](c1cccc(-c2ncc(OCC3CCN(C)CC3)cn2)c1)n1nc(-c2cccc(C#N)c2)ccc1=O [(R)-5b]
AUC(0-inf) ([3]; iv, 2 mg/kg): 2140 ng·h/mL | clearance ([3]; iv, 2 mg/kg): 15.5 mL/min/kg | half-life ([3]; iv, 2 mg/kg): 4.23 h | AUC(0-inf) ([3]; po, 5 mg/kg): 4580 ng·h/mL | bioavailability ([3]; po, 5 mg/kg): 86% | Vd ([3]; iv, 2 mg/kg): 5.69 L/kg | Cmax ([3]; po, 5 mg/kg): 495 ng/mL | Tmax ([3]; po, 5 mg/kg): 2 h | IC50 [1, 6]: 0.0037 µM | activity for inhibiting tumor cells, times that of (S)-5b ([1]; MHCC-97H, relative to (S)-5b): 31.9 times | activity for inhibiting tumor cells, times that of (±)-5b ([1]; MHCC-97H, relative to (±)-5b): 9.5 times | K ([4]; SD, rat): 0.0259 min⁻¹ | half-life ([4]; SD, rat): 0.447 h

[2H][C@@](C)(c1cccc(-c2ncc(OCC3CCN(C)CC3)cn2)c1)n1nc(-c2cccc(C#N)c2)ccc1=O [Compound 1]
IC50 [1, 7]: 0.0033 µM

[2H]C([2H])([2H])[C@]([2H])(c1cccc(-c2ncc(OCC3CCN(C)CC3)cn2)c1)n1nc(-c2cccc(C#N)c2)ccc1=O [Compound 14]
IC50 [1, 6]: 0.0037 µM

C[C@]12CC[C@H]3[C@@H](CCC4=CC(=O)CC[C@@]43C)[C@@H]1CC[C@@H]2O [testosterone, reference compound]
T1/2 (metabolic half-life in liver microsomes) ([4]; rat liver microsomes, 37° C.): 2.3 min

[2H]C([2H])([2H])[C@H](c1cccc(-c2ncc(OCC3CCN(C)CC3)cn2)c1)n1nc(-c2cccc(C#N)c2)ccc1=O [Compound 13]
IC50 [1, 6]: 0.0035 µM

C[C@@H](c1cccc(-c2ncc([Se]CCCN(C)C)cn2)c1)n1nc(-c2cccc(C#N)c2)ccc1=O [Compound 12]
IC50 [1, 6]: 0.415 µM

[2H]C([2H])([2H])[C@]([2H])(c1cccc(-c2ncc(OCC3CCN(C)CC3)cn2)c1)n1nc(-c2cccc(C#N)c2)ccc1=O [Compound 2]
IC50 [1, 7]: 0.0037 µM

CC(c1cccc(-c2ncc(SCCCN(C)C)cn2)c1)n1nc(-c2cccc(C#N)c2)ccc1=O (centres unmarked) [Compound 7]
IC50 [1, 6]: 0.0272 µM

CN1CCC(COc2cnc(-c3cccc(Cn4nc(-c5cccc(C#N)c5)ccc4=O)c3)nc2)CC1 [Tepotinib, reference compound]
AUC(0-inf) ([3]; mouse, IV 2 mg/kg, read-out: AUC0-∞): 563 ng·h/mL | clearance ([3]; mouse, IV 2 mg/kg, read-out: CL (converted)): 59.2 mL/min/kg | half-life ([3]; mouse, IV 2 mg/kg, read-out: T1/2 (converted)): 1.79 h | bioavailability ([3]; mouse, PO 5 mg/kg vs IV 2 mg/kg, read-out: F % (bioavailability)): 67.8% | AUC(0-inf) ([3]; mouse, PO 5 mg/kg, read-out: AUC0-∞): 982 ng·h/mL | Vd ([3]; mouse, IV 2 mg/kg, read-out: Vz): 9.18 L/kg | Cmax ([3]; mouse, PO 5 mg/kg, read-out: Cmax): 211 ng/mL | Tmax ([3]; mouse, PO 5 mg/kg, read-out: Tmax): 1 h | body weights D 0 ([5]; D 0): 24.9 ± 1.0 | body weights D 3 ([5]; D 3): 25.1 ± 1.1 | body weights D 6 ([5]; D 6): 25.3 ± 1.0 | body weights D 9 ([5]; D 9): 25.2 ± 1.1 | body weights D 12 ([5]; D 12): 25.3 ± 1.0 | body weights D 14 ([5]; D 14): 25.1 ± 1.0 | half-life ([4]; SD, rat): 0.345 h | K ([4]; rat liver microsomes, 37° C.): 0.0134 min⁻¹ | Relative tumor proliferation rate T/C (%) ([2]; 8 mg/kg intragastric): 4.9% | Tumor inhibition rate (%) ([2]; 8 mg/kg intragastric): 93.8% | Tumor weights ([2]; 8 mg/kg intragastric): 0.041 ± 0.021

C[C@@H](c1cccc(-c2ncc(OCCCN(C)C)cn2)c1)n1nc(-c2cccc(C#N)c2)ccc1=O [Compound 3]
IC50 [1, 6]: 1.04 µM

[2H]C([2H])([2H])[C@@]([2H])(c1cccc(-c2ncc(OCC3CCN(C)CC3)cn2)c1)n1nc(-c2cccc(C#N)c2)ccc1=O [Compound 15]
IC50 [1, 6]: 1.12 µM

C[C@@H](c1cccc(-c2ncc(SCCCN(C)C)cn2)c1)n1nc(-c2cccc(C#N)c2)ccc1=O [Compound 9]
IC50 [1, 6]: 0.189 µM

[2H]C([2H])([2H])[C@]([2H])(c1cccc(-c2ncc(OCC3CCN(C)CC3)cn2)c1)n1nc(-c2cccc(C#N)c2)ccc1=O [(R)-14]
AUC(0-inf) ([3]; iv, 2 mg/kg): 2440 ng·h/mL | clearance ([3]; iv, 2 mg/kg): 13.7 mL/min/kg | half-life ([3]; iv, 2 mg/kg): 4.48 h | AUC(0-inf) ([3]; po, 5 mg/kg): 6310 ng·h/mL | bioavailability ([3]; po, 5 mg/kg): 104% | Vd ([3]; iv, 2 mg/kg): 5.29 L/kg | Cmax ([3]; po, 5 mg/kg): 614 ng/mL | Tmax ([3]; po, 5 mg/kg): 4 h | K ([4]; SD, rat): 0.0198 min⁻¹ | half-life ([4]; SD, rat): 0.583 h | Relative tumor proliferation rate T/C (%) ([2]; 4 mg/kg intragastric): 2.28% | Tumor inhibition rate (%) ([2]; 4 mg/kg intragastric): 98.0% | Tumor weights ([2]; 4 mg/kg intragastric): 0.013 ± 0.015 | Relative tumor proliferation rate T/C (%) ([2]; 8 mg/kg intragastric): 1.59% | Tumor inhibition rate (%) ([2]; 8 mg/kg intragastric): 98.2% | Tumor weights ([2]; 8 mg/kg intragastric): 0.012 ± 0.006

CC(c1cccc(-c2ncc(OCC3CCN(C)CC3)cn2)c1)n1nc(-c2cccc(C#N)c2)ccc1=O (centres unmarked) [Compound 4]
IC50 [1, 6]: 0.0353 µM

C[C@H](c1cccc(-c2ncc([Se]CCCN(C)C)cn2)c1)n1nc(-c2cccc(C#N)c2)ccc1=O [Compound 11]
IC50 [1, 6]: 0.0117 µM

C[C@H](c1cccc(-c2ncc(OCCCN(C)C)cn2)c1)n1nc(-c2cccc(C#N)c2)ccc1=O [Compound 2]
IC50 [1, 6]: 0.014 µM
